Assay results reported in EP4201411A1, “NOVEL USE OF VITAMIN B12” (DSM IP Assets B.V., priority 2021, dated 2023).

Tests used:
Assay type in all cases: cell-based, human
Interleukin-1β = test: IL-1β competitive ELISA on culture supernatants of UV-B irradiated skin explants (ex vivo); conditions: vitamin B12 0,01%
Method: (§1) To further define the benefits of vitamin B12 in the skin, we included analysis of the compound in response to a stressor that induces inflammasome-medicated inflammation. Stress model options include UV exposure, confirming the effects on more complex skin tissues (ex vivo model). Firstly, the cytotoxicity of the active ingredient was evaluated. Then, the capacity of the active ingredient was measured to regulate inflammasome activation. […] Using immunohistochemistry, the effect of the active ingredient on the level of ASC protein (inflammasome marker) was studied. Finally, the expression level of miRNA hsa-miR-22-3p was quantified from RT-qPCR.
(§2) Ex vivo culture model and treatment: Fresh skin explants were obtained from abdominal surgery of a person. The culture medium dedicated to skin explants was used and renewed every day during each treatment. The skin biopsies were cultured in different conditions and each condition was performed in triplicates and processed separately. The active ingredient treatment was applied before and after the UV-B stress, but not during the UV stress. An UV-B irradiation of […] for 2 minutes was applied identically onto each irradiated skin explant. Prior to the irradiation, the culture medium was removed and replace by PBS +/+ for the duration of the stress.
(§3) Samples: • 1.Control Explant (No treatment, no irradiation) (NT_NS) • 2. Explant + UVB (NT_UV) • 3. Explant + UVB + vitamin B12 (0.01%) • 4. Explant + UVB + vitamin B12 (0.001%) Total no. of samples = 4 x 3 = 12 samples
The secretion of Interleukin-1β in response to activation of the stress-induced inflammatory signaling pathway was evaluated using a competitive ELISA assay. 24 hours after exposure to UV-B irradiation, culture supernatants of explants were recovered. The samples were then treated according to the manufacturer's instructions using the IL-1β (RAB0273, Sigma Aldrich). The Interleukin production by explants was measured at 450 nm using ENSIGHT.
IL-1β secretion results: UV-B increased the production of IL-1β compared to the untreated control. […]

ASC protein = test: ASC immunostaining of sections of UV-B irradiated skin explants (ex vivo); conditions: for ASC complex, % / ASC complex, mean_int (int/area) / ASC complex, Mean intensity / condition: skin explant sections, UVB 200mJ/cm2; for ASC complex, %: NTNS = 100.00, NTUV = 138.17; for ASC complex, mean_int (int/area) / ASC complex, Mean intensity / condition: n =38; for ASC complex, Mean intensity / condition: NTUV = 660.03, NTNS = 477.70
Method: as §1, §2, §3
To evaluate the onset of apoptotic signaling, the fluorescence intensity of ASC was measured. After UV exposure, the explants were replaced in a fresh culture medium. At the end of the treatments the explants were frozen and then cut into thin sections. Following this, immunohistochemistry was performed by adding primary monoclonal Antibody ASC/TMS1/PYCARD (clone B-3) (SantaCruz #sc-514414) and secondary antibody anti-mouse coupled to Cy5 (Jackson Laboratory). After Hoechst 33342 staining, the fluorescence intensity was measured using a Zeiss fluorescence microscope (Axio imager Z1).
Table 4: Quantification of ASC complex immunolabelled in skin explant sections with or without UV-B stress and after vitamin B12 treatment at 0,01% or 0,001% and irradiated or not with UVB at 200mJ/cm2. The statistical analysis was performed using two-tailed unpaired T-test vs NT_UV (+ p-value <0.05, ++ p-value<0.01, +++ p-value<0.001).

skin explants = test: LDH cytotoxicity assay on UV-B irradiated skin explants (ex vivo); conditions: for Cytotoxicity [OD 450 nm] Mean/conditions: LDH production, skin explants irradiated with 200 mJ/cm2 UVB
Method: as §1, §2, §3
Cytotoxicity method: Lactate dehydrogenase assay kit (LDH) was purchased from Roche and used according to manufacturer's protocol.
Table 1: Effect of vitamin B12 on LDH production by skin explants at 2 concentrations (0,01% and 0,001%) and of the positive control Triton at 0.1% after irradiation with 200 mJ/cm2 UVB. The statistical analysis was performed using two-tailed unpaired T-test and was not significant (p<0.05) for the vitamin B12 treatment vs irradiated control (NT_UV).

miR-22-3p = miR-22-3p quantification by RT-qPCR in UV-B irradiated skin explants (ex vivo); conditions: for miR-22-3p QR mean: skin explants, UV-B 200 mJ/cm2, normalized using U6 RNA, NT_UV = 1.067; for expression level of miR-22-3p (in words): skin explants after UV-B stress, vs NT_UV
Method: as §1, §2, §3
The miRNAs were extracted and purified using miRCURY RNA Isolation Kit. The quality control and miRNA quantification were performed using Agilent RNA Small kit and Analysis Agilent 2100 bioanalyzer. For miR qPCR, the RNA was reverse transcribed with a miRCURY LNA RT kit (339340, Qiagen). The reverse transcription reactions were diluted, and a fraction of diluted cDNA was used for each quantitative PCR, which was performed with a miRCURY LNA SYBR Green PCR kit (339346, Qiagen) using the CFX-connect (Biorad). The results were normalized to U6 expression. The reference and expression level of miRNA were calculated using 2ΔΔCt method.
Table 2: Effect of vitamin B12 on miR expression in skin explants after UV-B stress. The explants were treated with vitamin B12 at two concentrations (0,01% and 0,001%) and irradiated with UV-B at 200 mJ/cm2. The miR expression was normalized using U6 RNA. Two-tailed unpaired t-test was used for statistical analysis (using values from 3 replicates) vs NT_UV (*p-value <0.05).

cyanocobalamin [vitamin B12]
IL-1β secretion (in words) (Interleukin-1β; skin explants after UV-B stress): seems to decrease
IL-1β secretion, Relative Intensity (Interleukin-1β; skin explants after UV-B, NT_NS = 100, NT_UV = 157): 137
IL-1β secretion, Mean Intensity (Interleukin-1β; skin explants, 24 hours after UV-B, NT_UV = 4.914, NT_NS = 3.122): 4.2644
ASC complex, % (ASC protein; vitamin B12 0,01%): 103.22%
ASC complex, mean_int (int/area) (ASC protein; vitamin B12 0,01%): 491.31 int/area
ASC complex, Mean intensity / condition (ASC protein; vitamin B12 0,01%): 493.07
ASC protein (in words) (ASC protein; vitamin B12 0.001 % and 0.01 % topically on UV-irradiated skin explants): significantly reduced the ASC protein in a dose-dependent manner
ASC complex activation (in words) (ASC protein; vitamin B12 0.001%, after UV-B treatment): significantly reduces the ASC complex activation
ASC complex activation (in words) (ASC protein; vitamin B12 0.01%, compared to the UV-B stressed sample): significantly reduce the ASC complex activation to the level of the none irradiated extract
ASC complex, % (ASC protein; vitamin B12 0,001%): 118.48%
ASC complex, mean_int (int/area) (ASC protein; vitamin B12 0,001%): 524.44 int/area
ASC complex, Mean intensity / condition (ASC protein; vitamin B12 0,001%): 565.99
Cytotoxicity [OD 450 nm] Mean/conditions (skin explants; vitamin B12 0,01%): 0.131 OD 450 nm
Cytotoxicity [OD 450 nm] Mean/conditions (skin explants; vitamin B12 0,001%): 0.163 OD 450 nm
cytotoxicity (in words) (skin explants; vitamin B12 0,01% and 0,001%, skin explants after UVB, compared to biopsies treated with Triton 0.1%): did not exert cytotoxicity
miR-22-3p QR mean (miR-22-3p; vitamin B12 0,01%): 1.721
expression level of miR-22-3p (in words) (miR-22-3p; vitamin B12 0.01%): significantly increased
expression level of miR-22-3p (in words) (miR-22-3p; vitamin B12 0,001%): tends to increase miR-22-3p expression, but this activation is not statistically significant
miR-22-3p QR mean (miR-22-3p; vitamin B12 0,001%): 1.334
